The values that follow come from US5814631A, “Quinazoline derivatives and applications thereof” (Suntory Limited, priority 1995, dated 1998).

What is called IC50 is the concentration that gives 50% inhibition. For orientation: LD50 means the dose at which mortality reaches 50%. For orientation: inhibition means the drop in the measured response relative to a control, in per cent. High values mean a response far below the control, low ones a response near the control.

Where two headings read alike, the source gives them in different places.

The target of series [1] is T1, human heart chymase (Homo sapiens, UniProt P23946).
T1 sequence (P23946 22-247): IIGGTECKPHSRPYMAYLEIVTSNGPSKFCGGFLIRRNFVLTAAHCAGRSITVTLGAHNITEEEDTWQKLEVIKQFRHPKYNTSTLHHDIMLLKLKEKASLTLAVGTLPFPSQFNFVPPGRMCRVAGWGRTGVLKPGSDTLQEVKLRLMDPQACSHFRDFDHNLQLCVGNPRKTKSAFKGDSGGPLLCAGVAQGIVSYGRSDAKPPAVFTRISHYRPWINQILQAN
The following applies: read-out: Chymase inhibitive activity (IC50), Ang I substrate, 37° C., 30 min, pH 7.5.
Protocol: (§1) That is, to 10 μl of a 20 mM trisphosphate buffer (pH 7.5) containing 2MKCl were added 10 μl of purified chymase and 5 μl of a dimethylsulfoxide (hereinafter referred to as DMSO) solution of the test sample. The mixture was preincubated at 37° C. for 10 minutes, then 25 μl of a 1 mM Ang I solution was added and the mixture preincubated at 37° C. for 30 minutes. Next, 50 μl of 30% acetic acid was added to stop the enzymatic reaction. At the same time, a blind test was performed by adding, instead of the test sample solution, 5 μl of DMSO and performing the same reaction.
(§2) The reacted solution was subjected to high performance liquid chromatography using Develosil ODS-5 (made by Nomura Kagaku, .phi.4.6 mm×150 mm) and developed at a flow rate of 2.0 ml/min in 0.05% TFA by a straight concentration gradient raising the acetonitrile from 0% to 60% over 10 minutes. This was monitored by the absorbance at 210 nm and the peaks identified by comparison with standard samples of Ang I and Ang II. The peak areas were measured by an integrating meter to quantitatively analyze the Ang I and Ang II and calculate the chymase activity.

The test system of the next series is chymase. The following applies: canine, simian, and human arterial tissue; cited from earlier work.
Series [2] relates to vascular restenosis after the operation of PTCA. The settings on record: random multifacility clinical study, Europe, placebo control; cited from earlier work.
The target in series [3] is T2, human neutrophil derived cathepsin G (Homo sapiens, UniProt P08311).
T2 sequence (P08311 21-244 limits assumed): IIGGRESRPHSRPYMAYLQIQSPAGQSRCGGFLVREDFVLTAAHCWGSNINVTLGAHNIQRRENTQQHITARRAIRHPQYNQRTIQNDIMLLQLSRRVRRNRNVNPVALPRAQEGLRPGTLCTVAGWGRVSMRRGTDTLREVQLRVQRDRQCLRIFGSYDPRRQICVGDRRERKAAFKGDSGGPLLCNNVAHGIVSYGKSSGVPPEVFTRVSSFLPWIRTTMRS
Briefly: Measurement of cathepsin G inhibitive activity (conversion of Ang I to Ang II, HPLC). Type of series: biochemical. The following applies: Ang I substrate, 37° C., 30 min, pH 7.5.

Series [4] has as its target T3, bovine pancreatic α-chymotrypsin (Bos taurus, UniProt P00766).
T3 construct: purchased Sigma Co. Type II; host or cells: bovine pancreas
Briefly: Measurement of chymotrypsin inhibitive activity (Ang I, HPLC). In kind it is biochemical. The settings on record: for IC50: bovine pancreatic α-chymotrypsin, Ang I substrate, 37° C., 15 min, pH 7.5; for inhibition at 100 µM: percent inhibition at 100 μM.

Series [5] has as its target T1, human heart chymase. Briefly: biochemical. The settings on record: Chymase inhibitive activity (IC50), Ang I substrate, 37° C., 30 min, pH 7.5.
Protocol: as §1, §2
The next series can be described thus: in vivo. The settings on record: mouse, po.

For the compound “3(4-chlorobenzenesulfonyl)-1-phenethyl-2,4(1H,3H)-quinazolinedione [Example 129]”, the IC50 on human heart chymase [1] worked out at 3200 nM.

In the case of `CC(C)C[C@H](NC(=O)[C@@H](NC(=O)N[C@@H](Cc1ccccc1)C(=O)O)[C@@H]1CCN=C(N)N1)C(=O)N[C@H](C=O)Cc1ccccc1` [chymostatin], the “inhibition of the enzymatic activity of chymase, in words” value with chymase is listed as “inhibited”.

For the compound `CCOC(=O)[C@H](CCc1ccccc1)N[C@H]1CCCN2CCC[C@@H](C(=O)O)N2C1=O` [cilazapril], the “prophylactic effect on vascular restenosis after PTCA versus placebo” value in series [2] was “no statistically significant difference”.

Regarding `O=c1[nH]c2ccc(F)cc2c(=O)n1S(=O)(=O)c1ccc(Cl)cc1` [Example 33, 3-(4-chlorobenzenesulfonyl)-6-fluoro-2,4(1H,3H)-quinazolinedione], the IC50 in series [3] was found to be 3.6 µM; in series [4] it was 4.6 µM; at human heart chymase [5], 1900 nM.

For the compound `O=C(Cn1c(=O)n(S(=O)(=O)c2ccc(Cl)cc2)c(=O)c2ccc(Cl)cc21)Nc1cc[nH]c(=O)n1` [Example 88, [7-chloro-3-(4-chlorobenzenesulfonyl)-2,4(1H,3H)-quinazolinedion-1-yl]-N-cytosinacetamide], the 50% inhibitory concentration (IC50) on human heart chymase [1] amounted to 200 nM.

Regarding `O=c1[nH]c2cc(Cl)ccc2c(=O)n1S(=O)(=O)c1ccc([N+](=O)[O-])cc1` [Example 13, 7-chloro-3-(4-nitrobenzenesulfonyl)-2,4(1H,3H)-quinazolinedione], the values for the IC50 (in series [3]; in series [4]; on human heart chymase [5]) were 0.034 µM, 0.24 µM and 850 nM, respectively.

Turning to `Cc1cccc2[nH]c(=O)n(S(=O)(=O)c3ccc(Cl)cc3)c(=O)c12` [Example 2, 3-(4-chlorobenzenesulfonyl)-5-methyl-2,4(1H,3H)-quinazolinedione], in the series “in vivo”, the LD50 at 24 h is not below 1000 mg/kg and the selectivity ratio at 24 h was not below 50.

Consider `O=c1[nH]c2cc(Cl)ccc2c(=O)n1S(=O)(=O)c1ccc(Cl)cc1` [Example 1, 7-chloro-3-(-4-chlorobenzenesulfonyl)-2,4(1H,3H)-quinazolinedione], for which the IC50 in series [3] worked out at 0.52 µM; in series [4], 1.5 µM. In addition, the LD50 at 24 h in the series “in vivo” was not below 1000 mg/kg.

In the case of `O=c1[nH]c2cc(Cl)ccc2c(=O)n1S(=O)(=O)c1ccccc1` [Example 11, 7-chloro-3-benzenesulfonyl-2,4 3(1H,3H)-quinazolinedione], the concentration for half-maximal inhibition (IC50) came to 0.25 µM in series [3], 3 µM in series [4] and 730 nM at human heart chymase [5].

Regarding `Nc1ncc(NC(=O)Cn2c(=O)n(S(=O)(=O)c3ccc(Cl)cc3)c(=O)c3ccc(Cl)cc32)cn1` [Example 87, [7-chloro-3-(4-chlorobenzenesulfonyl)-2,4(1H,3H)-quinazolinedion-1-yl]-N-(4-(2-aminopyrimidinyl))acetamide], the IC50 on human heart chymase [1] turned out to be 130 nM.

As to `O=C(O)Cn1c(=O)n(S(=O)(=O)c2ccc(Cl)cc2)c(=O)c2ccc(Cl)cc21` [Example 29, 1-carboxymethyl-7-chloro-3-(4-chlorobenzenesulfonyl)-2,4(1H,3H)-quinazolinedione], the IC50 is 14 µM in series [3] and 3300 nM on human heart chymase [5]. Also, the inhibition at 100 µM in series [4] stood at 46.5%.

Regarding `Cc1ccc2[nH]c(=O)n(S(=O)(=O)c3ccc(Cl)cc3)c(=O)c2c1` [Example 3], the IC50 worked out at 64.4 µM in series [3], 3.5 µM in series [4] and 3900 nM on human heart chymase [5].

As to `Cn1c(=O)n(S(=O)(=O)c2ccc(Cl)cc2)c(=O)c2ccc(Cl)cc21` [Example 27, 7-chloro-3-(4-chlorobenzenesulfonyl)-1-methyl-2,4(1H,3H)-quinazolinedione], the IC50 stood at 16 µM in series [3] and 7000 nM against human heart chymase [5]. This compound displayed an inhibition at 100 µM in series [4] of 27%.
